The NIST ThermoML archive (doi:10.1021/je030107c)
Numbers after ± are expanded uncertainties.

Key:
[1] = xn = mol fraction of the nth substance listed; conditions: 101.3 kPa, Liquid; for viscosity: Capillary tube (Ostwald / Ubbelohde) method; for speed of sound: Linear variable-path acoustic interferometer; for mass density: Pycnometric method
[2] = refractive index (Na D-line) (dimensionless); xn = mol fraction of the nth substance listed; conditions: 101.3 kPa, Liquid, Standard Abbe refractometry

CCCCN(CCCC)CCCC [tributylamine] + C1COCCO1
Conditions	mass density, 298.15 K [kg/m3]	mass density, 303.15 K [kg/m3]	mass density, 308.15 K [kg/m3]	refractive index, 298.15 K	refractive index, 303.15 K	refractive index, 308.15 K	speed of sound, 298.15 K [m/s]	viscosity, 298.15 K [mPa·s]	viscosity, 303.15 K [mPa·s]	viscosity, 308.15 K [mPa·s]
[1], x2 = 0	774.4 ± 0.4	770.1 ± 0.4	766.2 ± 0.4	–	–	–	1261 ± 3	1.36 ± 0.011	1.221 ± 0.01	1.125 ± 0.009
[1], x2 = 0.1201	785.1 ± 0.4	780.9 ± 0.4	776.8 ± 0.4	–	–	–	1253 ± 3	1.245 ± 0.01	1.142 ± 0.009	1.039 ± 0.008
[1], x2 = 0.2122	794.7 ± 0.4	790.2 ± 0.4	785.9 ± 0.4	–	–	–	1254 ± 3	1.19 ± 0.009	1.089 ± 0.009	0.989 ± 0.008
[1], x2 = 0.3072	806 ± 0.5	801.6 ± 0.5	797.1 ± 0.5	–	–	–	1257 ± 3	1.156 ± 0.009	1.059 ± 0.008	0.963 ± 0.008
[1], x2 = 0.4085	820.5 ± 0.5	815.9 ± 0.5	811.4 ± 0.5	–	–	–	1264 ± 3	1.137 ± 0.009	1.044 ± 0.008	0.95 ± 0.008
[1], x2 = 0.5014	836.6 ± 0.5	832.1 ± 0.5	827.5 ± 0.5	–	–	–	1272 ± 3	1.123 ± 0.009	1.032 ± 0.008	0.94 ± 0.008
[1], x2 = 0.5972	856.9 ± 0.5	852.1 ± 0.5	847.4 ± 0.5	–	–	–	1281 ± 3	1.118 ± 0.009	1.026 ± 0.008	0.934 ± 0.007
[1], x2 = 0.6998	884 ± 0.5	879.2 ± 0.5	874.1 ± 0.5	–	–	–	1292 ± 3	1.112 ± 0.009	1.022 ± 0.008	0.933 ± 0.007
[1], x2 = 0.7999	917.9 ± 0.5	912.6 ± 0.5	907.4 ± 0.5	–	–	–	1305 ± 3	1.114 ± 0.009	1.025 ± 0.008	0.936 ± 0.007
[1], x2 = 0.8947	960.6 ± 0.6	955.2 ± 0.6	949.9 ± 0.6	–	–	–	1320 ± 3	1.133 ± 0.009	1.042 ± 0.008	0.952 ± 0.008
[2], x2 = 0	–	–	–	1.4274 ± 0.0011	1.4251 ± 0.0011	1.4226 ± 0.0011	–	–	–	–
[2], x2 = 0.1201	–	–	–	1.4266 ± 0.0011	1.424 ± 0.0011	1.4215 ± 0.0011	–	–	–	–
[2], x2 = 0.2122	–	–	–	1.4259 ± 0.0011	1.4236 ± 0.0011	1.421 ± 0.0011	–	–	–	–
[2], x2 = 0.3072	–	–	–	1.425 ± 0.0011	1.4226 ± 0.0011	1.4201 ± 0.0011	–	–	–	–
[2], x2 = 0.4085	–	–	–	1.4244 ± 0.0011	1.4218 ± 0.0011	1.4196 ± 0.0011	–	–	–	–
[2], x2 = 0.5014	–	–	–	1.4234 ± 0.0011	1.4209 ± 0.0011	1.4184 ± 0.0011	–	–	–	–
[2], x2 = 0.5972	–	–	–	1.4226 ± 0.0011	1.4201 ± 0.0011	1.4174 ± 0.0011	–	–	–	–
[2], x2 = 0.6998	–	–	–	1.4217 ± 0.0011	1.4192 ± 0.0011	1.4168 ± 0.0011	–	–	–	–
[2], x2 = 0.7999	–	–	–	1.421 ± 0.0011	1.4185 ± 0.0011	1.416 ± 0.0011	–	–	–	–
[2], x2 = 0.8947	–	–	–	1.4205 ± 0.0011	1.418 ± 0.0011	1.4154 ± 0.0011	–	–	–	–
